# Patent US20230278972A1, “SUBSTITUTED HALOALKYL SULFONANILIDE HERBICIDES” (FMC Corporation, priority 2020, published 2023)
# How the values were obtained:
# Format in all cases: in vivo
# kochia (Bassia scoparia) [1] = assay: Test A1 preemergence, kochia
# How it was run: (§1)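 Seeds were first planted into a blend of loam soil and sand and given a preemergence directed soil spray. In parallel, pots of the same soil were sown for postemergence application once plants reached 2 to 10 cm and the one- to two-leaf stage. Both used surfactant-containing non-phytotoxic solvent formulations.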
# [2] = system: Pigweed, Palmer (palmer amaranth, palmer pigweed, Amaranthus palmeri); assay: Test A1 preemergence, Pigweed, Palmer
# How it was run: as §1
# kochia (Bassia scoparia) [3] = assay: Test A1 postemergence, kochia; conditions: for Kochia plant response rating: 31 g ai/ha, postemergence; for Plant response rating, Kochia: Postemergence
# How it was run: as §1
# [4] = system: ragweed (common ragweed, Ambrosia artemisiifolia); assay: Test A1 postemergence, ragweed; conditions: for Ragweed plant response rating: 31 g ai/ha, postemergence; for Plant response rating, Ragweed: Postemergence
# How it was run: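 Test compounds were formulated in a non-phytotoxic solvent mixture containing a surfactant. For preemergence, seeds sown in a loam soil–sand blend received a directed soil spray. For postemergence, potted plants in the same soil, 2 to 10 cm tall at the one- to two-leaf stage, were sprayed.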
# rice (Oryza sativa) = assay: Test B1 flooded paddy test, rice; conditions: 250 g ai/ha, Flood, applied to paddy water, 2-leaf stage, visually evaluated after 10 to 14 days
# Source text: A dash (-) response means no test result.
# [5] = 31 g ai/ha, 0 to 100 scale (0 no effect, 100 complete control)
# [6] = 125 g ai/ha, 0 to 100 scale, 0 no effect, 100 complete control
# [7] = 0 to 100 scale (0 no effect, 100 complete control)
# [8] = 125 g ai/ha, 0 to 100 scale (0 no effect, 100 complete control), 10 days
# [9] = 500 g ai/ha, 0 to 100 scale (0 no effect, 100 complete control)
# [10] = 125 g ai/ha, 0 to 100 scale (0 no effect, 100 complete control)
compound,measurement,setting,value
CCOC(=O)N(c1cc(C(=O)N2C[C@@H](C)O[C@H](C)C2)c(C)c(C)c1C)S(=O)(=O)C(F)(F)F (relative stereo) [Compound 374],"Plant response rating, Kochia",kochia (Bassia scoparia) [1]; [5],0
same,"Plant response rating, Kochia",kochia (Bassia scoparia) [1]; [6],0
same,"Plant response rating, Pigweed, Palmer",[2]; [5],60
same,"Plant response rating, Pigweed, Palmer",[2]; [6],80
same,Kochia plant response rating,kochia (Bassia scoparia) [3]; [7],0
same,"Plant response rating, Kochia","kochia (Bassia scoparia) [3]; 125 g ai/ha, 0 to 100 scale",10
same,Ragweed plant response rating,[4]; [7],60
same,"Plant response rating, Ragweed","[4]; 125 g ai/ha, 0 to 100 scale",80
same,"Plant response rating, Rice (0 to 100 scale, 0 is no effect, 100 is complete control)",rice (Oryza sativa),0
Cc1ccc(C2=NOC3CCCC23)cc1NS(=O)(=O)C(F)(F)F (centres unmarked) [Compound 377],"Plant response rating, Kochia",kochia (Bassia scoparia) [1]; [5],0
same,"Plant response rating, Kochia",kochia (Bassia scoparia) [1]; [6],20
same,"Plant response rating, Pigweed, Palmer",[2]; [5],0
same,"Plant response rating, Pigweed, Palmer",[2]; [6],0
same,Kochia plant response rating,kochia (Bassia scoparia) [3]; [7],20
same,"Plant response rating, Kochia","kochia (Bassia scoparia) [3]; 125 g ai/ha, 0 to 100 scale",30
same,Ragweed plant response rating,[4]; [7],20
same,"Plant response rating, Ragweed","[4]; 125 g ai/ha, 0 to 100 scale",30
same,"Plant response rating, Rice (0 to 100 scale, 0 is no effect, 100 is complete control)",rice (Oryza sativa),0
CCc1cc(C)c(N(COC(=O)C(C)(C)C)S(=O)(=O)C(F)(F)F)cc1C1=NOC2CCCC12 (centres unmarked) [Compound 378],"Plant response rating, Kochia",kochia (Bassia scoparia) [1]; [5],0
same,"Plant response rating, Kochia",kochia (Bassia scoparia) [1]; [6],20
same,"Plant response rating, Pigweed, Palmer",[2]; [5],0
same,"Plant response rating, Pigweed, Palmer",[2]; [6],20
same,Kochia plant response rating,kochia (Bassia scoparia) [3]; [7],0
same,"Plant response rating, Kochia","kochia (Bassia scoparia) [3]; 125 g ai/ha, 0 to 100 scale",60
same,Ragweed plant response rating,[4]; [7],0
same,"Plant response rating, Ragweed","[4]; 125 g ai/ha, 0 to 100 scale",30
same,"Plant response rating, Rice (0 to 100 scale, 0 is no effect, 100 is complete control)",rice (Oryza sativa),10
Cc1c(NS(=O)(=O)C(F)(F)F)cc(C2=NOC3(CCCC3)C2)c(C)c1C [Compound 380],"Plant response rating, Kochia",kochia (Bassia scoparia) [1]; [5],0
same,"Plant response rating, Kochia",kochia (Bassia scoparia) [1]; [6],60
same,"Plant response rating, Pigweed, Palmer",[2]; [5],30
same,"Plant response rating, Pigweed, Palmer",[2]; [6],40
same,Kochia plant response rating,kochia (Bassia scoparia) [3]; [7],30
same,"Plant response rating, Kochia",kochia (Bassia scoparia) [3]; [8],50
same,Ragweed plant response rating,[4]; [7],40
same,"Plant response rating, Ragweed",[4]; [8],60
same,"Plant response rating, Rice (0 to 100 scale, 0 is no effect, 100 is complete control)",rice (Oryza sativa),10
Cc1cc(C)c(C2=NOC(C(C)C)C2)cc1NS(=O)(=O)C(F)(F)F (centres unmarked) [Compound 381],"Plant response rating, Kochia",kochia (Bassia scoparia) [1]; [5],0
same,"Plant response rating, Kochia",kochia (Bassia scoparia) [1]; [6],60
same,"Plant response rating, Pigweed, Palmer",[2]; [5],30
same,"Plant response rating, Pigweed, Palmer",[2]; [6],90
same,Kochia plant response rating,kochia (Bassia scoparia) [3]; [7],0
same,"Plant response rating, Kochia",kochia (Bassia scoparia) [3]; [8],20
same,Ragweed plant response rating,[4]; [7],0
same,"Plant response rating, Ragweed",[4]; [8],50
same,"Plant response rating, Rice (0 to 100 scale, 0 is no effect, 100 is complete control)",rice (Oryza sativa),0
Cc1c(C2=NOC3(CCCC3)C2)cc(N(COC(=O)C(C)(C)C)S(=O)(=O)C(F)(F)F)c(C)c1C [Compound 382],"Plant response rating, Kochia",kochia (Bassia scoparia) [1]; [5],0
same,"Plant response rating, Kochia",kochia (Bassia scoparia) [1]; [6],0
same,"Plant response rating, Pigweed, Palmer",[2]; [5],0
same,"Plant response rating, Pigweed, Palmer",[2]; [6],20
same,Kochia plant response rating,kochia (Bassia scoparia) [3]; [7],0
same,"Plant response rating, Kochia",kochia (Bassia scoparia) [3]; [8],30
same,Ragweed plant response rating,[4]; [7],20
same,"Plant response rating, Ragweed",[4]; [8],40
same,"Plant response rating, Rice (0 to 100 scale, 0 is no effect, 100 is complete control)",rice (Oryza sativa),10
Cc1cc(Cl)c(NS(=O)(=O)C(F)(F)F)cc1N1CCC2(CCCCC2)C1=O [Compound 393],"Plant response rating, Kochia",kochia (Bassia scoparia) [1]; [5],60
same,"Plant response rating, Kochia",kochia (Bassia scoparia) [1]; [6],80
same,"Plant response rating, Pigweed, Palmer",[2]; [5],30
same,"Plant response rating, Pigweed, Palmer",[2]; [6],60
same,Kochia plant response rating,kochia (Bassia scoparia) [3]; [7],20
same,"Plant response rating, Kochia",kochia (Bassia scoparia) [3]; [8],60
same,Ragweed plant response rating,[4]; [7],60
same,"Plant response rating, Ragweed",[4]; [8],70
same,"Plant response rating, Rice (0 to 100 scale, 0 is no effect, 100 is complete control)",rice (Oryza sativa),0
Cc1cc(C)c(N(COC(=O)C(C)(C)C)S(=O)(=O)C(F)(F)F)cc1N1CCC2(CCC(F)(F)CC2)C1=O [Compound 397],"Plant response rating, Kochia",kochia (Bassia scoparia) [1]; [6],90
same,"Plant response rating, Kochia",kochia (Bassia scoparia) [1]; [9],100
same,"Plant response rating, Pigweed, Palmer",[2]; [6],90
same,"Plant response rating, Pigweed, Palmer",[2]; [9],100
same,"Plant response rating, Kochia",kochia (Bassia scoparia) [3]; [8],90
same,"Plant response rating, Kochia","kochia (Bassia scoparia) [3]; 500 g ai/ha, 0 to 100 scale",90
same,"Plant response rating, Ragweed",[4]; [8],80
same,"Plant response rating, Ragweed","[4]; 500 g ai/ha, 0 to 100 scale",80
same,"Plant response rating, Rice (0 to 100 scale, 0 is no effect, 100 is complete control)",rice (Oryza sativa),0
COC1CCC2(CC1)CCN(c1cc(NS(=O)(=O)C(F)(F)F)c(C)cc1C)C2=O (centres unmarked) [Compound 398],"Plant response rating, Kochia",kochia (Bassia scoparia) [1]; [5],40
same,"Plant response rating, Kochia",kochia (Bassia scoparia) [1]; [6],50
same,"Plant response rating, Pigweed, Palmer",[2]; [5],80
same,"Plant response rating, Pigweed, Palmer",[2]; [6],100
same,Kochia plant response rating,kochia (Bassia scoparia) [3]; [7],20
same,"Plant response rating, Kochia",kochia (Bassia scoparia) [3]; [8],70
same,Ragweed plant response rating,[4]; [7],20
same,"Plant response rating, Ragweed",[4]; [8],80
same,"Plant response rating, Rice (0 to 100 scale, 0 is no effect, 100 is complete control)",rice (Oryza sativa),30
Cc1cc(C)c(N(S(=O)(=O)C(F)(F)F)S(=O)(=O)C(F)(F)F)cc1N1CCC2(CCC(C(F)(F)F)CC2)C1=O (centres unmarked) [Compound 399],"Plant response rating, Kochia",kochia (Bassia scoparia) [1]; [5],0
same,"Plant response rating, Kochia",kochia (Bassia scoparia) [1]; [6],50
same,"Plant response rating, Pigweed, Palmer",[2]; [5],30
same,"Plant response rating, Pigweed, Palmer",[2]; [6],60
same,Kochia plant response rating,kochia (Bassia scoparia) [3]; [7],30
same,"Plant response rating, Kochia",kochia (Bassia scoparia) [3]; [8],70
same,Ragweed plant response rating,[4]; [7],50
same,"Plant response rating, Ragweed",[4]; [8],90
same,"Plant response rating, Rice (0 to 100 scale, 0 is no effect, 100 is complete control)",rice (Oryza sativa),0
Cc1cc(C)c(N2CCC3(CCC(C(F)(F)F)CC3)C2=O)cc1NS(=O)(=O)C(F)(F)F (centres unmarked) [Compound 400],"Plant response rating, Kochia",kochia (Bassia scoparia) [1]; [5],0
same,"Plant response rating, Kochia",kochia (Bassia scoparia) [1]; [6],20
same,"Plant response rating, Pigweed, Palmer",[2]; [5],50
same,"Plant response rating, Pigweed, Palmer",[2]; [6],100
same,Kochia plant response rating,kochia (Bassia scoparia) [3]; [7],20
same,"Plant response rating, Kochia",kochia (Bassia scoparia) [3]; [8],70
same,Ragweed plant response rating,[4]; [7],30
same,"Plant response rating, Ragweed",[4]; [8],80
same,"Plant response rating, Rice (0 to 100 scale, 0 is no effect, 100 is complete control)",rice (Oryza sativa),25
Cc1cc(C)c(N(COC(=O)C(C)(C)C)S(=O)(=O)C(F)(F)F)cc1N1CCC2(CCC(C)CC2)C1=O (centres unmarked) [Compound 401],"Plant response rating, Kochia",kochia (Bassia scoparia) [1]; [5],0
same,"Plant response rating, Kochia",kochia (Bassia scoparia) [1]; [6],0
same,"Plant response rating, Pigweed, Palmer",[2]; [5],0
same,"Plant response rating, Pigweed, Palmer",[2]; [6],20
same,Kochia plant response rating,kochia (Bassia scoparia) [3]; [7],10
same,"Plant response rating, Kochia",kochia (Bassia scoparia) [3]; [8],30
same,Ragweed plant response rating,[4]; [7],60
same,"Plant response rating, Ragweed",[4]; [8],90
same,"Plant response rating, Rice (0 to 100 scale, 0 is no effect, 100 is complete control)",rice (Oryza sativa),45
Cc1cc(C)c(N2CCC3(CCC(C)CC3)C2=O)cc1NS(=O)(=O)C(F)(F)F (centres unmarked) [Compound 402],"Plant response rating, Kochia",kochia (Bassia scoparia) [1]; [5],0
same,"Plant response rating, Kochia",kochia (Bassia scoparia) [1]; [6],30
same,"Plant response rating, Pigweed, Palmer",[2]; [5],60
same,"Plant response rating, Pigweed, Palmer",[2]; [6],80
same,Kochia plant response rating,kochia (Bassia scoparia) [3]; [7],10
same,"Plant response rating, Kochia",kochia (Bassia scoparia) [3]; [8],50
same,Ragweed plant response rating,[4]; [7],50
same,"Plant response rating, Ragweed",[4]; [8],50
same,"Plant response rating, Rice (0 to 100 scale, 0 is no effect, 100 is complete control)",rice (Oryza sativa),0
Cc1cc(C)c(N(COC(=O)C(C)(C)C)S(=O)(=O)C(F)(F)F)cc1N1CCC2(CCC(C(F)(F)F)CC2)C1=O (centres unmarked) [Compound 403],"Plant response rating, Kochia",kochia (Bassia scoparia) [1]; [5],0
same,"Plant response rating, Kochia",kochia (Bassia scoparia) [1]; [6],0
same,"Plant response rating, Pigweed, Palmer",[2]; [5],0
same,"Plant response rating, Pigweed, Palmer",[2]; [6],0
same,Kochia plant response rating,kochia (Bassia scoparia) [3]; [7],10
same,"Plant response rating, Kochia",kochia (Bassia scoparia) [3]; [8],40
same,Ragweed plant response rating,[4]; [7],0
same,"Plant response rating, Ragweed",[4]; [8],50
same,"Plant response rating, Rice (0 to 100 scale, 0 is no effect, 100 is complete control)",rice (Oryza sativa),0
CCOc1cccc2c1C(=O)N(c1cc(N(COC(=O)C(C)(C)C)S(=O)(=O)Cl)c(C)cc1C)C2 [Compound 414],"Plant response rating, Kochia",kochia (Bassia scoparia) [1]; [5],20
same,"Plant response rating, Kochia",kochia (Bassia scoparia) [1]; [10],80
same,"Plant response rating, Pigweed, Palmer",[2]; [10],40
same,Kochia plant response rating,kochia (Bassia scoparia) [3]; [7],1
same,"Plant response rating, Kochia",kochia (Bassia scoparia) [3]; [8],50
same,Ragweed plant response rating,[4]; [7],40
same,"Plant response rating, Ragweed",[4]; [8],70
same,"Plant response rating, Rice (0 to 100 scale, 0 is no effect, 100 is complete control)",rice (Oryza sativa),0
